Series [1] has as its system MDAMB231 cell line. In words: Cytotoxicity, cell count method. Type of series: cell-based, human. Conditions: MDAMB231, 72 hours of incubation. As for the experimental part:
(§1) The anti-tumor activity of the compounds of the present invention was evaluated as the effect on the proliferation and survival of tumor cells by counting the number of living cells in presence or absence of the compounds ("cell count method"), and as the effect on the viability and metabolic activity of the cells, by using particular substrates that are converted by cellular enzymes into coloured or luminescent products, proportionally with metabolic activity and state of the cell, such as the MTS tetrazolium compound ("MTS method") or luciferin ("ATP-based method") respectively.
(§2) Cells were seeded at 3 to 5 x 10^4 cells/well density depending on cell lines and maintained at 37°C in 5% CO2. After 24 hours cells were treated with ascending concentrations of the investigational compounds and the reference (5-fluoro-Uracyl) in a range from 0 to 100 µM. Compounds were dissolved in DMSO which final concentration in each well was 0.5% v:v. After 72 h of incubation with compounds, the cells were detached with trypsin and re-suspended in 1 ml of complete medium; the cell number was evaluated using a Z2 Coulter Counter ("cell count method") (Attallah and Johnson, A simple highly sensitive methods for the determination of cell viability using an electronic particle analyzer, Coulter counter J. Immunol. Methods. 1981, 41, 155; Leonardi et al., Activated kinase screening identifies the IKBKE oncogene as a positive regulator of autophagy. Autophagy, 2019, 15, 312). Alternatively, after the 72 hours of incubation with compounds, the MTS solution (CellTiter 96® AQueous One Solution Cell Proliferation Assay) is added to each well and absorbance at 490 nm wavelength is read after 2 hours of incubation ("MTS method"). Results in Tables 8-13, 17, 18 were obtained with the cell count method. Results in Tables 14-15 were obtained with the MTS method. Results in Table 16 were obtained with ATP-based method.

Series [2] is described as follows: Kinetic solubility (turbidimetry). Type of series: physicochemical. Conditions: for solubility at 2 h: 37 °C, kinetic from dmso stock; for Absorbance at 620nm: 2 h. As for the experimental part: Kinetic solubility was assessed in phosphate buffered saline at pH 7.4 according to the turbidimetry method. Turbidity (precipitation) was measured by absorbance at 620 nm following incubation at 37°C for 2 h. Stock solution of compounds in DMSO were prepared to produce the desired final range of concentrations, then these were added to the buffer to obtain the final test compound concentrations (1 µM, 3 µM, 10 µM, 30 µM, 100 µM), with a final DMSO concentration 1%). Solubility was estimated from the concentration of tested compound that produced a significant increase in absorbance (≥ 0.003 OD at 620 nm) above vehicle control (1% DMSO in water). Miconazole, Reserpine and Propranolol were used as controls.

The subject of series [3] is A549 Red-FLuc. In words: Cytotoxicity, cell count method. Conditions: Homo sapiens, 72 hours of incubation. Format: cell-based. Here is the method: as §1, §2
Series [4] has as its target DDX3X (Homo sapiens, UniProt O00571). In words: nanoDSF enzymatic binding (melting temperature shift). The arrangement: human DDX3X (residues 132-607, UniProtID: 000571, produced by Proteros GmbH); purchased Proteros GmbH. Conditions: DDX3X with AMPPNP 100 µM, no compound. From the text:
The binding of compounds to DDX3X have been assessed by nanoDSF analysis (NanoTemper Technologies GmbH, Flößergasse 4, 81369 München, Germany). NanoDSF technology is a Differential Scanning Fluorimetry method which measures the protein stability with high resolution without the need of a dye. In particular it measures the changes of the intrinsic tryptophan fluorescence at 330 and 350 nm and it is used to determine the melting temperature of a protein. In the folded state the residues of tryptophan are buried in the hydrophobic core. During denaturation the residues are more exposed and the fluorescence changes in both intensity and wavelength. In a typical experiment, the protein is mixed with the ligand in the reaction buffer and transferred into a capillary. The fluorescence is monitored over temperature gradient between 20 and 95°C with an increment of 2.5°C per minute. The interaction of the ligand to the folded state of the protein shifts the protein melting temperature (Tm) at higher or lower temperature.
Experimental conditions: the experiments were conducted with the device Prometheus NT.48 (NanoTemper Technologies GmbH), the enzyme used was the human DDX3X (residues 132-607, UniProtID: 000571, produced by Proteros GmbH). The assessed compounds were dissolved in pure DMSO adequate to obtain a concentration of compound of 100µM and DMSO 1% (v:v) in final solution. Reaction buffer for DDX3X was 20 mM HEPES, pH 7.5, 0.5 mM TCEP, 500 mM NaCl, 10% (v:v) Glycerin, with a final reaction volume of 10 µL and a final DMSO concentration of 1% (v:v). The reaction was performed in "High sensitivity capillaries" in the range of 20-95°C with a heating rate of 2.5°C/min, with an incubation time of 60 minutes.
• 1) Add appropriate volume of target enzyme in reaction buffer • 2) Add compound(s) in 100% DMSO (1% final DMSO conc.) • 3) Fill the capillary • 4) Measure fluorescence
The assay development was performed with DDX3X protein alone showing a Tm at 54.6 °C.
Binding of compound 5 was assessed with the NanoDSF technique, evaluating the association of the aforementioned compound with APO DDX3X and in presence of a competitor for the ATP binding site, Adenylyl imidodiphosphate (AMPPNP) to assess competition of compound 5 for the DDX3X ATP binding site. Table 6. Final protein and compound concentrations in the various assay setup:
All the measures were performed in triplicate and the average (Mean Tm) and standard deviation (SD) were calculated with the following equations: [formula] and SD = sqrt((∑((Tm−Mean Tm))^2)/(n−1)) [formula]
A change of 5xSD from the 1% DMSO control mean is considered to be a significant Tm change. Test of DDX3X with 1% DMSO was performed to obtain the reference melting temperature of the protein alone. Compounds are considered as binders if the Tm shifts by >= 5 times the standard deviation of the control (protein in the absence of compound). Table 7. DDX3X melting temperatures (Tm) at various experimental conditions
A general note: In DSF a fluorescence change marks the thermal transition of the protein.

≈ marks a conversion by molar mass, not a printed value. Counter-ions that a name gives are not always drawn. Like-named read-outs stand apart in the source and are kept apart here.

DDX3X, sequence (O00571 132-607): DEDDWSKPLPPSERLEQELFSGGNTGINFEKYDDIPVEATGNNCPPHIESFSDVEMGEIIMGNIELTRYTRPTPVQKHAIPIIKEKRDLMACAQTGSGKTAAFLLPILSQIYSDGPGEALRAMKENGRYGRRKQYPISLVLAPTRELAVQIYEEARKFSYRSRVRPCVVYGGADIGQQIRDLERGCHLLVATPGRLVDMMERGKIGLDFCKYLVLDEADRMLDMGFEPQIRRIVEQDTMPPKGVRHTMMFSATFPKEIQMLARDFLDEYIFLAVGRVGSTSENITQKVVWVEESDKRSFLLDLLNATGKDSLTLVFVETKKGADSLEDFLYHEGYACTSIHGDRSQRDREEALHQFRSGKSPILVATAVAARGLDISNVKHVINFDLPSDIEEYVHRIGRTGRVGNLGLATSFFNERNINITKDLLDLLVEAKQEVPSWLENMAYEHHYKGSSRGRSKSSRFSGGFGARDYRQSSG

The molecule `CCCCc1cn(-c2ccc(-c3nnc(-c4ccccc4)o3)cc2)nn1` [Compound 2, 2-(4-(4-butyl-1H-1,2,3-triazol-1-yl)phenyl)-5-phenyl-1,3,4-oxadiazole] gave an IC50 in series [1] (Homo sapiens, MDA-MB-231, 72 h) of 8.11 µM.
In series [2] (pH 7.4, aqueous buffer), `Clc1ccc(COC(Cn2ccnc2)c2ccc(Cl)cc2Cl)c(Cl)c1` (stereo not drawn) [Miconazole] registered a solubility at 2 h of 10 to 30 µM (≈ 4.16 to 12.5 µg/mL). The “Absorbance at 620nm” value is 0.037 in series [2] (1 µM, pH 7.4); 0.037 in series [2] (3 µM, pH 7.4); 0.037 in series [2] (10 µM, pH 7.4); 0.044 in series [2] (30 µM, pH 7.4); 0.053 in series [2] (100 µM, pH 7.4).
In series [1] (Homo sapiens, MDA-MB-231, 72 h), `CCCCc1cn(-c2ccc(-c3nnc(-c4cccc5cnccc45)o3)cc2)nn1` [Compound 7, 2-(4-(4-butyl-1H-1,2,3-triazol-1-yl)phenyl)-5-(isoquinolin-5-yl)-1,3,4-oxadiazole] came in with an IC50 of 216 µM.
The same measure, in the same setting: the same measure for `CCCCc1cn(-c2ccc(-c3nnc(-c4ccccc4C)o3)cc2)nn1` [Compound 4, 2-(4-(4-butyl-1H-1,2,3-triazol-1-yl)phenyl)-5-(o-tolyl)-1,3,4-oxadiazole]: 38.9 µM; for `CCCCc1cn(-c2ccc(-c3nnc(-c4ccccc4OC(F)F)o3)cc2)nn1` [Compound 8, 2-(4-(4-butyl-1H-1,2,3-triazol-1-yl)phenyl)-5-(2-(difluoromethoxy)phenyl)-1,3,4-oxadiazole]: 1000 µM; for `CCCCc1cn(-c2ccc(-c3nnc(-c4ccccc4F)o3)cc2)nn1` [Compound 9, 2-(4-(4-butyl-1H-1,2,3-triazol-1-yl)phenyl)-5-(2-fluorophenyl)-1,3,4-oxadiazole]: 43.1 µM.
For the molecule `CC(C)NCC(O)COc1cccc2ccccc12` (stereo not drawn) [Propranolol], in series [2] (aqueous buffer, kinetic solubility, PBS pH 7.4, read-out: solubility), the solubility at 2 h was more than 100 µM. Besides, the “Absorbance at 620nm” value in series [2] (conc. 1 µM, PBS pH 7.4, 37°C) is 0.038; in series [2] (conc. 3 µM, PBS pH 7.4, 37°C), 0.037; in series [2] (conc. 10 µM, PBS pH 7.4, 37°C), 0.039; in series [2] (conc. 30 µM, PBS pH 7.4, 37°C), 0.038; in series [2] (conc. 100 µM, PBS pH 7.4, 37°C), 0.037.
With `COC(=O)[C@H]1[C@H]2C[C@@H]3c4[nH]c5cc(OC)ccc5c4CCN3C[C@H]2C[C@@H](OC(=O)c2cc(OC)c(OC)c(OC)c2)[C@@H]1OC` [Reserpine], the solubility at 2 h in series [2] (pH 7.4, aqueous buffer) was 30 to 100 µM (≈ 18.3 to 60.9 µg/mL). Moreover, the “Absorbance at 620nm” value in series [2] (1 µM, pH 7.4) was 0.037; in series [2] (3 µM, pH 7.4), 0.037; in series [2] (10 µM, pH 7.4), 0.037; in series [2] (30 µM, pH 7.4) it was 0.040; in series [2] (100 µM, pH 7.4), 0.058.
For the molecule `CCCCc1noc(-c2ccc(-c3nnc(-c4cccc(Cl)c4F)o3)cc2)n1` [Compound 1, 3-Butyl-5-(4-(5-(3-chloro-2-fluorophenyl)-1,3,4-oxadiazol-2-yl)phenyl)-1,2,4-oxadiazole], the IC50 in series [1] (Homo sapiens, MDA-MB-231, 72 h) was determined as 1000 µM. That is a millimolar value.
`CCCCc1cn(-c2ccc(-c3nnc(-c4ccccc4)o3)cc2)nn1` [Compound 3, 2-(4-(4-butyl-1H-1,2,3-triazol-1-yl)phenyl)-5-phenyl-1,3,4-oxadiazole] had an IC50 in series [1] of 6.07 µM.
In turn, `CCCCc1cn(-c2ccc(-c3nnc(-c4ccc(C5CCNCC5)cc4)o3)cc2)nn1` [Compound 19, 2-(4-(4-butyl-1H-1,2,3-triazol-1-yl)phenyl)-5-(4-(piperidin-4-yl)phenyl)-1,3,4-oxadiazole hydrochloride] displayed an IC50 in series [3] of 1.7 µM.
Regarding `CCCCc1cn(-c2ccc(-c3nnc(-c4cccc(OC5CCCC5)c4)o3)cc2)nn1` [Compound 22, 2-(4-(4-butyl-1H-1,2,3-triazol-1-yl)phenyl)-5-(3-(cyclopentyloxy)phenyl)-1,3,4-oxadiazole], the IC50 in series [3] came out at 3.42 µM.
Consider `Nc1ncnc2c1ncn2[C@@H]1O[C@H](COP(=O)(O)OP(=O)(O)NP(=O)(O)O)[C@@H](O)[C@H]1O` [AMPPNP, Adenylyl imidodiphosphate, reference compound], for which, in series [4], the Tm was 54.7 °C and the “effect on Tm upon binding” value is “no significant effect on Tm”.
Regarding `CCCCc1cn(-c2ccc(-c3nnc(-c4cc(C(C)C)ccc4C)o3)cc2)nn1` [Compound 6, 2-(4-(4-butyl-1H-1,2,3-triazol-1-yl)phenyl)-5-(5-isopropyl-2-methylphenyl)-1,3,4-oxadiazole], in series [1] (Homo sapiens, MDA-MB-231, 72 h), the IC50 came to 34.6 µM. That is a double-digit micromolar value.

As usually defined, the IC50 is the midpoint of a concentration-inhibition curve. A higher IC50 goes with a need for much substance. By solubility is commonly meant how much of the substance goes into solution per volume. A word on the Tm: it is the temperature at the midpoint of the melting transition.

The values are drawn from patent EP4050002A1, “ANTI-PROLIFERATIVE AGENTS” (First Health Pharmaceuticals B.V., priority 2021, dated 2022).
